Where two headings read alike, the source gives them in different places.
Columns and labels:
[1] = tested on: influenza H1N1 N-terminal PA endonuclease (PAN); test: PAN endonuclease inhibition assay (fluorescent ssDNA-oligo substrate); assay type: biochemical; settings: 100 μM; standard deviation in parentheses
[2] = pKa by potentiometric titration (Sirius T3); assay type: physicochemical
Description: In addition to gaining an understanding about the metal coordinating properties of the salicylate MBIs by using [(Tp^Ph,Me)Zn(MBI)] model complexes, the physicochemical properties of the MBIs were also studied.
(§1) Physicochemical properties were determined using a Sirius T3 instrument.[23–25] […] The pKa of a compound was determined by analysing each MBI sample in triplicate using potentiometric titrations. Experiments were typically performed over a pH range of 2.0–12.0. Standard deviations were derived from fitting all three replicate experiments. For water insoluble compounds methanol was added and the obtained apparent pKa (psKa) was extrapolated to the aqueous pKa by the Yasuda–Shedlovsky procedure. log P was determined via potentiometric titrations in the presence of varying ratios of octanol and water. The presence of octanol shifts the pKa of ionizable species, and based on the shifts, a log P can be determined. Measurements for log P determination were typically performed over a pH range of 2.0–12.0. Three experiments with varying ratios of water:octanol was performed, allowing for a standard deviation to be determined from the fitting of all measurements. MBI sample sizes were ∼0.5 mg for both pKa and log P measurements.

[3] = target: T1, Human recombinant MMP-3 catalytic domain (Homo sapiens, UniProt P08254); test: MMP-3 enzyme inhibition assay (chromogenic substrate, 412 nm); assay type: biochemical; settings: standard deviation in parentheses, read-out: %inhib MMP-3
T1 construct: Human recombinant MMP-3 catalytic domain was purchased; purchased ENZO Life Sciences BML-SE109-9090
Description: To probe the selectivity of the salicylate MBIs, the library was screened against matrix metalloproteinase-3 (MMP-3) at fragment concentrations of 100 μM (Table 2).
Human recombinant MMP-3 catalytic domain was purchased from ENZO Life Sciences (catalog # BML-SE109-9090). Assays were carried out in clear Costar 96-well, half-area, flat-bottom assay plates (catalog # 80-2404). Each well contained a total volume of 100 μL including buffer (50 mM MES, 10 mM CaCl2, 0.05% Brij-35, 1 mM DNTB, pH 6.0), MMP-3 (2 U), and the fragment solution. After a 30 min incubation period at 37 °C, the reaction was initiated by the addition of 10 μL of chromogenic MMP-3 substrate (100 μM final concentration, Ac-Pro-Leu-Gly-[2-mercap-to-4-methyl-pentanoyl]-Leu-Gly-OC2H5, ENZO Life Sciences, catalog #BML-P125-0005). Absorbance was monitored at 412 nm using a Bio-Tek ELx 808 colorimetric plate reader, and measurements were recorded every minute for 10 min. The rate of absorbance increase was compared for samples versus negative controls (no inhibitor, arbitrarily set as 100% activity).
5. Single Point screening […]
Figure S5. Single point screening of salicylate MBI library against MMP-3 at 100 µM inhibitor
concentration. NNGH as positive control.

[4] = log P by potentiometric titration octanol/water (Sirius T3); log D7.4 calculated from pKa and log P; assay type: physicochemical; settings: for logD: pH 7.4
Description: In addition to gaining an understanding about the metal coordinating properties of the salicylate MBIs by using [(Tp^Ph,Me)Zn(MBI)] model complexes, the physicochemical properties of the MBIs were also studied. The acidity (pKa) and lipophilicity (log P) were measured using potentiometric methods and the lipophilicity at physiological pH (log D7.4) was calculated from these two values (Table 1).[23–25]
as §1

[5] = target: T2, Recombinant human glyoxalase I (GLO1) (Homo sapiens, UniProt Q04760); test: GLO1 enzyme inhibition assay (absorbance at 240 nm); assay type: biochemical; settings: for inhibition at 100 µM: read-out: %inhib GLO1; for IC50: dose-response curves, read-out: IC50 against GLO1
T2 construct: purchased R&D Systems 4959-GL
T2 sequence (Q04760 2-184 limits assumed): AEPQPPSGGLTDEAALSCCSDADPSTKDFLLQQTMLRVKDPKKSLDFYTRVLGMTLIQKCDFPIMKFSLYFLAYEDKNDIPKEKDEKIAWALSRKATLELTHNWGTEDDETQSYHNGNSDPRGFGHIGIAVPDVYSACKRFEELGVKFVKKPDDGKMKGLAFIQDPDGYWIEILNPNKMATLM
Description: To evaluate if the salicylate MBIs could serve as starting points for future FBDD campaigns, the MBI library was screened for inhibitory activity against human glyoxalase I (GLO1) at fragment concentrations of 100 μM (Table 2). […] Recombinant human glyoxalase I (GLO1) was purchased from R&D Systems (catalog #4959-GL). Assays were carried out in 0.1 M sodium phosphate, pH 7.0 buffer, utilizing 96-well clear UV plates (Corning UV Transparent Microplates, catalog #3635). A fresh solution of GSH (100 mM) and methylglyoxal (MG) (100 mM) was prepared in Millipore grade water. […] The substrate mixture was vortexed vigorously for 45 s and then allowed to sit at room temperature for 15 min. The initial well volume was 50 μL containing GLO1 (40 ng) and inhibitor. This protein and inhibitor mixture was incubated for 15–20 min prior to addition of the substrate. […] The enzyme activity was measured utilizing a Biotek Synergy HT or H4 plate reader by measuring absorbance at 240 nm every 1 min for a duration of 8 min. The rate of absorbance increase was compared for samples versus controls containing no inhibitor (set at 100% activity). The absorbance reading for background wells containing DMSO, buffer, and substrate (no enzyme or inhibitor) was subtracted from the experimental wells. […] Dose-response curves were generated, analysed and fitted to obtain IC50 values (see ESI ^†).
5. Single Point screening
Single point screening of salicylate MBI library against GLO1 at 100 µM inhibitor concentration. Chugai 1 (4,6-diphenyl-N-hydroxypyridone) 4 as positive control. […]
6. Dose-response curves against GLO1
The raw data from the GLO1 assay was background corrected and normalized from 0 to 100 with 100 being the largest mean of each dataset. A variable slope log-logistic model was chosen for curve fitting.
The corresponding datapoints are shown as empty bullets and were not included in the curve-fitting. The resulting restricted datasets were fitted according to a literature procedure setting the lower limit of the dose-response curve to zero. This compensates for the loss of information caused by trimming of the dataset. 5,6
Figure S7. Dose-response curve of 11 against GLO1.

[6] = 100 μM, standard deviation in parentheses
[7] = potentiometric, 0.15 M KCl, triplicate, read-out: pKa (pKa,1)
[8] = calculated from measured pKa and log P, read-out: log D7.4
[9] = potentiometric, octanol/water, read-out: log P

T1 sequence (P08254 100-272 limits assumed): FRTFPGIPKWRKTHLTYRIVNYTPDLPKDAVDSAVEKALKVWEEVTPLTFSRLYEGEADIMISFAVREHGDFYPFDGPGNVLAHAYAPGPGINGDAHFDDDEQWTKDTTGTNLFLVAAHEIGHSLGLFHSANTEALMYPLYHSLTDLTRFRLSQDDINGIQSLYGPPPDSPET

SMILES	%inhib Endo (PAN) [1]	pKa ([2]; pKa)	pKa ([2]; pKa (pKa,1))	inhibition at 100 µM [3] [%]	logP [4]	logD [4]	inhibition at 100 µM [5, 6] [%]	also measured
O=C(O)c1cccc2nc[nH]c12 [Compound 4]	0%	5.49	3.04	3	-1.4	-2.09	38	pKa ([2]; pKa (third printed value)): 12.8
CS(=O)(=O)Nc1ccccc1C(=O)O [Compound 2]	1 (9) %	10.8	3.04	11	1.39	-2.97	18	
O=c1[nH]c2c(-c3nnn[nH]3)cccc2o1 [Compound 21]	0%			0			39	
O=c1cc(-c2ccccc2)cc(-c2ccccc2)n1O [1-hydroxy-4,6-diphenylpyridin-2(1H)-one, reference compound]								GLO1 inhibition by positive control ([5]; 50 μM): complete inhibition
Oc1ccccc1-c1nnn[nH]1 [Compound 8]		10.9	4.63	6	1.54	-0.46	24	
Oc1ccc(-c2ccoc2)cc1-c1nc2ccccc2s1 [Compound 11g]								IC50 [5]: 6.9 ± 2.8 µM
O=C(O)c1cccc2oc(=O)[nH]c12 [Compound 3]	11 (7) %	10.3	3.65	0	1.28	-2.47	29	
Oc1ccc(N2CCCCC2)cc1-c1nc2ccccc2s1 [Compound 11d]								IC50 [5]: > 20 µM
COC(=O)c1cccc2nc[nH]c12 [Compound 14]	37 (5) %	12.3	4.51	7	1.73	1.73	19	
CONC(=O)c1cccc2nn[nH]c12 [Compound 19]	31 (7) %	9.93	6.99	0	0.75	0.22	17	
COC(=O)c1cccc2nn[nH]c12 [Compound 15]	42 (6) %		7.96	0	1.31	1.21	22	
COC(=O)c1cccc2oc(=O)[nH]c12 [Compound 13]	46 (7) %		8.78	0	1.24	1.22	31	
CS(=O)(=O)Nc1ccccc1-c1ncccn1 [Compound 25]	21 (8) %			0			19	
CONC(=O)c1cccc2oc(=O)[nH]c12 [Compound 17]	23 (6) %	12.5	7.58	0	0.4	0.18	33	
Oc1ccccc1C1(O)COC1 [Compound 9]	17 (9) %		9.38	0	0.43	0.42	9	
c1cc(-c2nnn[nH]2)c2[nH]cnc2c1 [Compound 22]				74			50	

SMILES	%inhib Endo (PAN) [1]	pKa ([2]; pKa)	pKa ([2]; pKa (pKa,1))	inhibition at 100 µM [3] [%]	logP [4]	logD [4]	inhibition at 100 µM [5, 6] [%]	also measured
COC(=O)c1ccccc1O [Compound 6]	21 (6) %		9.8	0	2.19	2.19	10	
COC(=O)c1ccccc1NS(C)(=O)=O [Compound 12]	33 (11) %			12				pKa [2, 7]: 8.86; logD [4, 8]: 1.49; logP [4, 9]: 1.51; inhibition at 100 µM [5]: 18%
CONC(=O)c1ccccc1O [Compound 7]	46 (8) %	12	7.23	0	0.85	0.49	22	
OC1(c2cccc3nn[nH]c23)COC1 [Compound 24]	32 (8) %			0			19	
OC1(c2cccc3nc[nH]c23)COC1 [Compound 23]	22 (8) %			4			10	
CONC(=O)c1cccc2nc[nH]c12 [Compound 18]	22 (7) %	8.4	4.23	0	0.05	0.01	20	pKa ([2]; pKa (third printed value)): > 12
Oc1ccccc1-c1ncccn1 [Compound 10]				0			15	
O=C(O)c1cccc2nn[nH]c12 [Compound 5]	22 (7) %	9.29	3.49	0	1.38	-2.37	20	
Oc1ccc(-c2cccc(Cl)c2)cc1-c1nc2ccccc2s1 [Compound 11c]								IC50 [5]: 3.3 ± 0.7 µM
Oc1ccc(N2CCCC2)cc1-c1nc2ccccc2s1 [Compound 11f]								IC50 [5]: 4.4 ± 1.8 µM
Oc1ccc(-c2ccccc2)cc1-c1nc2ccccc2s1 [Compound 11a]								IC50 [5]: 5 ± 1.5 µM
Oc1ccc(N2CCOCC2)cc1-c1nc2ccccc2s1 [Compound 11e]								IC50 [5]: > 50 µM
Cc1cccc(-c2ccc(O)c(-c3nc4ccccc4s3)c2)c1 [Compound 11b]								IC50 [5]: 6.8 ± 1.4 µM
CS(=O)(=O)Nc1ccccc1-c1nnn[nH]1 [Compound 20]	43 (4) %			3				pKa ([2]; potentiometric, 0.15 M KCl, triplicate, read-out: pKa): 9.52; pKa [2, 7]: 3.62; logD [4, 8]: -0.43; logP [4, 9]: 1.18; inhibition at 100 µM [5]: 10%
CONC(=O)c1ccccc1NS(C)(=O)=O [Compound 16]	44 (6) %	11.3	7.15	0	0.12	-0.33	16	

— publication PMC8849047, “Salicylate metal-binding isosteres as fragments for metalloenzyme inhibition” (Chemical Science, 2022)
